Active and inactive are the calls of the source.
Assays:
BJ [1] = assay: BJ-TERT-LT-ST fibroblast viability loss – cell-based, RAS-independent, luminescence, dose response (AID 1935); format: functional; details: Homo sapiens;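 note: BJ fibroblasts immortalized with TERT plus LT and ST oncogenes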
BJ [2] = assay: cells; format: functional, cell-based; details: Homo sapiens
BJ [3] = assay: growth inhibition of engineered Ras-driven BJ cells – cell-based, alamar blue fluorescence, cherrypicked samples, dose response (AID 2631); format: functional; details: Homo sapiens;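 note: confirmatory dose-response assay in RAS-dependent BJ fibroblasts engineered with TERT, LT and ST, with cytotoxicity read by fluorescence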
[4] = Luminescence Cell-Based Dose Confirmation HTS to Identify Activators of 5'UTR Stem-Loop Driven Alpha-Synuclein mRNA Translation in H4 Neuroglioblastoma Cells. [Related pubchem assays: 1829 (Project Summary), 1814 (Primary HTS)]; format: functional
H4 = assay: Luminescence Cell-Based Dose Response HTS to Identify Activators of 5'UTR Stem-Loop Driven Prion Protein mRNA Translation in H4 Neuroglioblastoma Cells. [Related pubchem assays: 1829 (Project Summary), 1814 (Primary HTS)]; format: functional; details: Homo sapiens
[5] = DRD fibroblast viability loss – cell-based, non-viral oncogenic, luminescence, dose response (AID 1934); format: functional; details: Homo sapiens
INS1 = assay: INS-1E survival protection against cytokine death – cell-based, luminescence, retest, dose response (AID 449756); format: functional; details: Rattus norvegicus;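 note: cell death triggered by IL-1 beta plus TNF-alpha plus IFN-gamma mixture; protective hits raise ATP signal compared with cytokine alone wells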
[6] = reduction of Shn3 3'UTR-driven luciferase in osteoblasts – cell-based, Clone20 osteoblasts, firefly luciferase, cherry-picked, dose response (AID 624132); format: functional;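 note: firefly luciferase luminescence from reporter carrying the Shn3 3'UTR in osteoblasts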
[7] = Luminescence Cell-Based Dose Response HTS to Identify Activators of Luciferase Translation or Activity in H4 […] Cells. [Related pubchem assays: 1829 (Project Summary), 1814 (Primary HTS)]; format: functional
BJ [8] = assay: BJ-TERT fibroblast viability loss – cell-based, RAS-independent, luminescence, dose response (AID 1933); format: functional; details: Homo sapiens
[9] = target: T1, Microphthalmia-associated transcription factor (Homo sapiens, UniProt O75030); assay: reducers of TRPM1 reporter luminescence, concentration series – cell-based, SK-MEL-5, cherry-picked, set 3, MITF inhibitor project, dose response (AID 493073); format: functional;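 note: SK-MEL-5 melanoma cells with luciferase driven by the MITF target TRPM1 promoter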
T1 sequence (O75030 whole entry): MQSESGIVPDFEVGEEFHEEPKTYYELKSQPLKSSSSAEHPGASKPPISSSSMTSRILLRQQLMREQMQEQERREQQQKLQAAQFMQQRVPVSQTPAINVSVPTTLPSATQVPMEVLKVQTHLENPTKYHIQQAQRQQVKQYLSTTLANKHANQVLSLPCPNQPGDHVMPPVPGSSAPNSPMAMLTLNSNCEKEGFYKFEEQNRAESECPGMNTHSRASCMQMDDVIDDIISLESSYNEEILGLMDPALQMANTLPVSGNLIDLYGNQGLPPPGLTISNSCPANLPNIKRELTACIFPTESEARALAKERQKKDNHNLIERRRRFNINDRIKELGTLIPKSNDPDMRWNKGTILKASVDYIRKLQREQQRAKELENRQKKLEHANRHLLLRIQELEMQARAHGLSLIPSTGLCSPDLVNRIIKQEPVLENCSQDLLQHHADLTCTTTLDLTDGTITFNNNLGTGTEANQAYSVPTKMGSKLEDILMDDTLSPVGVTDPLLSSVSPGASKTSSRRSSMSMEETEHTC

[10] = Luminescence Cell-Based Dose Retest to Confirm Inhibitors of Cancer Stem Cells. [Related pubchem assays (depositor defined):AID2717, AID2721]; format: functional; details: Homo sapiens
Cytochrome P450 1A2 = target: T2, Cytochrome P450 1A2 (Homo sapiens, UniProt P05177);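 note: PubChem cytochrome P450 panel assay, CYP1A2 panel member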
T2 sequence (P05177 whole entry): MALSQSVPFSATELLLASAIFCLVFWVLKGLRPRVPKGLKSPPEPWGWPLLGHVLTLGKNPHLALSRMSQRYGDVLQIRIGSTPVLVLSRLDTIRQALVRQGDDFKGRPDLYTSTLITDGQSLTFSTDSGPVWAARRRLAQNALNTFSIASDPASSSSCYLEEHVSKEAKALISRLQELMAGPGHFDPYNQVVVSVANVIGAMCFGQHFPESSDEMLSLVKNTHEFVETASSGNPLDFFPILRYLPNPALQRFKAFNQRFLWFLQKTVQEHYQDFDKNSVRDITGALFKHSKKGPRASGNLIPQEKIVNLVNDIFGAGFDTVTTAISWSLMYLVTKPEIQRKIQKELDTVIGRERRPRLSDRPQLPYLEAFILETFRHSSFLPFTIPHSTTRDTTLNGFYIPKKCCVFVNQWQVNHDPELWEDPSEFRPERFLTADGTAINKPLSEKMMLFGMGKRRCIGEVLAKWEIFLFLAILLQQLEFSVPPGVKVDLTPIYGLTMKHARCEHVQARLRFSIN

Cytochrome P450 2D6 = Cytochrome P450 2D6 (Homo sapiens, UniProt P10635);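 note: CYP2D6 member of a cytochrome P450 panel assay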
Cytochrome P450 3A4 = Cytochrome P450 3A4 (Homo sapiens, UniProt P08684);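 note: CYP3A4 tested as one member of a cytochrome P450 panel screen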
[11] = target: 72 kDa type IV collagenase (Homo sapiens, UniProt P08253); assay: Dose Response validation of uHTS RPN11 inhibitor hits using a MMP-2 Fluorescence assay.; format: functional
Prothrombin = Prothrombin (Bos taurus, UniProt P00735); assay: thrombin protease inhibitors – biochemical, fluorescence polarization, uHTS hits, dose response (AID 602369); format: functional
[12] = target: 26S proteasome non-ATPase regulatory subunit 14 (Homo sapiens, UniProt O00487); assay: inhibition of proteasome subunit RPN11 – biochemical, fluorescence polarization, uHTS hits, confirmation (AID 602368); format: functional
Cytochrome P450 2C19 = Cytochrome P450 2C19 (Homo sapiens, UniProt P33261); assay: Cytochrome panel assay with activity outcomes. Panel member name: p450-cyp2c19 Compounds with AC50 equal or less than 10 uM are considered active; format: functional; details: read-out: AC50
SN12K1 = assay: cells; format: functional; details: Homo sapiens
P388 = assay: cells; format: functional; details: Mus musculus
P388/ADR = assay: cells; format: functional; details: Mus musculus
[13] = target: T3, E3 ubiquitin-protein ligase XIAP (Homo sapiens, UniProt P98170); assay: Counter Screen using XIAP-Bir3 for Chemical Antagonists of Bir1/2 domains of IAP-family anti-apoptotic proteins. [Related pubchem assays (depositor defined):AID1018, AID1449, AID1514, AID1638, AID1749, AID1750, AID488957, AID488963]
[14] = target: T3, E3 ubiquitin-protein ligase XIAP; assay: small molecules displacing peptide from XIAP – biochemical, IAP family, fluorescence polarization (AID 1018); format: functional
Hexokinase = target: T4, Hexokinase (Trypanosoma brucei, UniProt Q38C41); assay: Confirmation assay for inhibitors of Trypanosoma brucei hexokinase 1-Analogue-first series. [Related pubchem assays (depositor defined):AID1430, AID1632, AID2516, AID2560, AID2579, AID2600, AID449725, AID492951]; format: functional
T4 sequence (Q38C41 whole entry): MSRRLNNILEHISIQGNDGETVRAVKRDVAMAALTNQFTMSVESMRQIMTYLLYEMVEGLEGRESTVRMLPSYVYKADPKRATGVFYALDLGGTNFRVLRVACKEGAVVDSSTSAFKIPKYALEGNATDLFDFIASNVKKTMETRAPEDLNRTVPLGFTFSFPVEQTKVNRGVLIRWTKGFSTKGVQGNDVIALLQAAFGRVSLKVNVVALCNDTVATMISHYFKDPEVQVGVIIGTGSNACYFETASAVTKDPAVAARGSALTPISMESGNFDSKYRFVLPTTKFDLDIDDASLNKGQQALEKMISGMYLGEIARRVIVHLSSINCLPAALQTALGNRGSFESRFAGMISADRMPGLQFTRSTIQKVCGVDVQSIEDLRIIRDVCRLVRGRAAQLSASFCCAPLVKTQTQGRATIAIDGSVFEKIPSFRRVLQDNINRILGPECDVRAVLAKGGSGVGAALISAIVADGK

[15] = Trypanosoma cruzi growth suppression in host cells – NIH3T3 host cells, beta-gal luminescence, confirmation (AID 2044); format: functional, cell-based;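 note: intracellular parasites grown in NIH/3T3 mouse fibroblasts as host cells; luminescent beta-galactosidase reporter signal from transgenic T. cruzi replicating inside host cells; inhibitors lower the luminescence signal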
[16] = NIH3T3 cell viability loss – ATP luminescence, mouse fibroblasts, counter-screen, dose response (AID 2010); format: functional, cell-based;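 note: cells exposed to compound for about 90 hours before reading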

Sequence of Cytochrome P450 3A4 (P08684 whole entry): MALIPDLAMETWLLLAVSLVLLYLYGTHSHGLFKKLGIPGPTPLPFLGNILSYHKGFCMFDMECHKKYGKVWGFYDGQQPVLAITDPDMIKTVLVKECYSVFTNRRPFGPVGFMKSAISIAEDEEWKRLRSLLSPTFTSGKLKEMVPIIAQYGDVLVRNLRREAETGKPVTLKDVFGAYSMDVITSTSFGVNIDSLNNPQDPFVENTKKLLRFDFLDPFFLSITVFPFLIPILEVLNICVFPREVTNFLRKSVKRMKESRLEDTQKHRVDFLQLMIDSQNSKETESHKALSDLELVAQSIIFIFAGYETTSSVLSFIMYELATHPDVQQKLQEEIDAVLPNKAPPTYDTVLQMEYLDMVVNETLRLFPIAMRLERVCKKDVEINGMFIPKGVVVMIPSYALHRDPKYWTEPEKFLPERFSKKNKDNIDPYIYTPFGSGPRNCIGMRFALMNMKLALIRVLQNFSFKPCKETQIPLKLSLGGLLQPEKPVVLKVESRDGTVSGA
T3 sequence (P98170 whole entry): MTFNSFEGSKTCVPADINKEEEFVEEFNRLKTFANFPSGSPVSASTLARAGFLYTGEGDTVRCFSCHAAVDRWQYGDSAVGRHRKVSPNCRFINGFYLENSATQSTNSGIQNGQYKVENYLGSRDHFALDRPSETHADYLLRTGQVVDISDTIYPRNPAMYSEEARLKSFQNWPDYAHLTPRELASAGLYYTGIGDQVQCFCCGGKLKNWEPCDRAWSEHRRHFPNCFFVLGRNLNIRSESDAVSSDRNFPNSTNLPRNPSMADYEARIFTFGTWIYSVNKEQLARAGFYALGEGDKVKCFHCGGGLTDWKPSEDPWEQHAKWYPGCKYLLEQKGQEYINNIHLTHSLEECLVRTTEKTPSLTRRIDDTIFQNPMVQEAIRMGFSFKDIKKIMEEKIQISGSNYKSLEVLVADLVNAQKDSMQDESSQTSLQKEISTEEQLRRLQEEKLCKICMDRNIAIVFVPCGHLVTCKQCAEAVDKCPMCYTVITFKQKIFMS
Sequence of 26S proteasome non-ATPase regulatory subunit 14 (O00487 whole entry): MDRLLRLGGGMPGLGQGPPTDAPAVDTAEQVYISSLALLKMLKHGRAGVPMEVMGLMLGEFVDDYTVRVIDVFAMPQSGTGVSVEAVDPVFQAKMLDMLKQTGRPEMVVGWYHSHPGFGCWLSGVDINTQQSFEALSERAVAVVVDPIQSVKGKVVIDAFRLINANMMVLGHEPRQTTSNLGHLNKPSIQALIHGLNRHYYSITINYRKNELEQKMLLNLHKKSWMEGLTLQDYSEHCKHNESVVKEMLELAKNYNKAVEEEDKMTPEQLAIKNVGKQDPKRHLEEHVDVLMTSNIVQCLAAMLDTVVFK
Sequence of 72 kDa type IV collagenase (P08253 whole entry): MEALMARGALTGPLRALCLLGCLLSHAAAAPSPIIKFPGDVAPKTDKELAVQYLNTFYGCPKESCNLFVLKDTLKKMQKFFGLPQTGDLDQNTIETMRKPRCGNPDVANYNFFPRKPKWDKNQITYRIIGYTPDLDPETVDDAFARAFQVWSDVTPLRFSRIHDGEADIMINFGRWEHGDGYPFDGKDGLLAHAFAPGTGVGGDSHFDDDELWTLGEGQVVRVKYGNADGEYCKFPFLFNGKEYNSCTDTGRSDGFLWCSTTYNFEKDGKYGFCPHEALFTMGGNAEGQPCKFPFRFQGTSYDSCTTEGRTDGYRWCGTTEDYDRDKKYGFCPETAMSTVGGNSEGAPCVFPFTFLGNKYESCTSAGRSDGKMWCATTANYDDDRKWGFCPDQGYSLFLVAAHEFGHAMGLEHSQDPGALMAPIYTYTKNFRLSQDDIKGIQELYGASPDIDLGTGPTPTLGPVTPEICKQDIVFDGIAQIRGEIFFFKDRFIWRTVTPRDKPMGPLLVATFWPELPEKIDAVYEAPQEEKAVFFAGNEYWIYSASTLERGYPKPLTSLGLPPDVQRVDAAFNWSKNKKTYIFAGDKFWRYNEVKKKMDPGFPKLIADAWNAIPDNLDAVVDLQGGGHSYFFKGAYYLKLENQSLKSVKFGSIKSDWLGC
Sequence of Cytochrome P450 2C19 (P33261 whole entry): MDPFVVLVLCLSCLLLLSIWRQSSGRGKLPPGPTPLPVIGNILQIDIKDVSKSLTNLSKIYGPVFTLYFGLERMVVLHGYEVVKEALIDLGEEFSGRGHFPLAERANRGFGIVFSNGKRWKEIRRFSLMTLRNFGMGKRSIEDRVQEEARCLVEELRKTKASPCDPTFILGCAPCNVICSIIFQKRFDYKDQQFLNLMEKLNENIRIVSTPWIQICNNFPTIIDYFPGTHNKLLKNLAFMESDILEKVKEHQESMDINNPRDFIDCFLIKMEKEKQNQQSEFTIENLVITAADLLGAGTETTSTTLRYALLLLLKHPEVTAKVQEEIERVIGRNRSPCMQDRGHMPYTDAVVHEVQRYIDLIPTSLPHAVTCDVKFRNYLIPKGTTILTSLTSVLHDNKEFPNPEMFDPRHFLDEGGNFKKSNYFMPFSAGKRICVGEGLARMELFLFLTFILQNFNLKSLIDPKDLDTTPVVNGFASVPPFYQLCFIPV
Sequence of Cytochrome P450 2D6 (P10635 whole entry): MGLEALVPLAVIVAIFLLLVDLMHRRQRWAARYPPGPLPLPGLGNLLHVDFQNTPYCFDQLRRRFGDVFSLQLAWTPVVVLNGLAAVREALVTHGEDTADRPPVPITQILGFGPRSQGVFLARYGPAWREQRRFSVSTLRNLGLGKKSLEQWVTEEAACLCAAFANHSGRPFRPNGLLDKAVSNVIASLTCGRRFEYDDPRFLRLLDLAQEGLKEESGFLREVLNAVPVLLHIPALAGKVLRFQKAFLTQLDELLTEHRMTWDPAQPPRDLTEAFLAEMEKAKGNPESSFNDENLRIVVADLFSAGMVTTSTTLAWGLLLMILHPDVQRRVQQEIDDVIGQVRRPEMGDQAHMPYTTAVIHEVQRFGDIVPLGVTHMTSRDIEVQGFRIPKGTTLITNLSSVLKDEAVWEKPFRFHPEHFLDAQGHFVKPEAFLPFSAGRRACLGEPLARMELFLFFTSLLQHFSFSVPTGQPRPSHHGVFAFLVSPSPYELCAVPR

CCN(CC)Cc1c(O)ccc2c1O/C(=C\C=C\c1ccccc1)C2=O
EC50 (BJ [1]): > 150 µM (inconclusive)
EC50 (BJ [2]): > 150 µM (not active)
EC50 (BJ [3]): > 133 µM (inactive)
EC50 [4]: 16.5 µM (active)
EC50 (H4): > 120 µM (not active)
EC50 [5]: 55.7 µM (active)
AC50 (INS1): > 120 µM (inactive)
AC50 [6]: 1.96 µM (active)
EC50 [7]: 29.6 µM (active)
EC50 (BJ [8]): > 150 µM (not active)
AC50 [9]: 47.6 µM (active)
AC50 [10]: 16.6 µM (active)

CC(C)C(=O)Nc1ccc(C(=O)NCc2cccnc2)cc1
EC50 (BJ [1]): 19.4 µM (inconclusive)
EC50 (BJ [2]): 3.86 µM (active)
EC50 (BJ [3]): 18.9 µM (active)
EC50 [5]: > 150 µM (not active)
EC50 (BJ [8]): > 150 µM (not active)

C#CCN[C@@H](C)Cc1ccccc1
AC50 (Cytochrome P450 1A2): 15.8 µM (inconclusive)
AC50 (Cytochrome P450 2D6): 25.1 µM (inconclusive)
AC50 (Cytochrome P450 3A4): inconclusive

CCOC(=O)c1c(C)nc2c(c1-c1ccccc1)C(=O)CCC2
AC50 (Cytochrome P450 3A4): inconclusive

CCOC(=O)NC(=O)/C(C#N)=C/c1ccc(N(C)C)cc1
IC50 [11]: > 100 µM (inactive)
IC50 (Prothrombin): 25.6 µM (active)
IC50 [12]: 14.7 µM (active)

O=C(C1CCN(S(=O)(=O)N2CCOCC2)CC1)N1CCN(Cc2ccccc2)CC1
AC50 (Cytochrome P450 2C19): 14.1 µM (inconclusive)
AC50 (Cytochrome P450 3A4): inconclusive

C/C(=N\NC(=S)N1CC2CCC(CC2)C1)c1nccs1
GI50 (SN12K1): < 0.01 µM (active)
GI50 (P388): < 0.01 µM (active)
GI50 (P388/ADR): < 0.01 µM (active)

COc1ccccc1NC(=O)CCc1nc2sc3c(c2c(=O)[nH]1)CCCC3
IC50 [11]: > 100 µM (inactive)
IC50 (Prothrombin): 47.9 µM (active)
IC50 [12]: 33.1 µM (active)

O=C(CCl)NC(Cc1ccc(F)cc1)C(=O)O (centres undefined)
GI50 (SN12K1): > 100 µM (inactive)
GI50 (P388): > 100 µM (inactive)
GI50 (P388/ADR): > 100 µM (inactive)

COc1ccc(C(N)=NOC(=O)Cc2ccc(C)cc2)cc1
IC50 [13]: > 100 µM (inactive)
IC50 [14]: > 100 µM (not active)

Cc1cc(C)cc(NC(=O)Nc2ccc3c(c2)N(C)C(=O)CS3)c1
IC50 [13]: > 100 µM (inactive)
IC50 [14]: > 100 µM (not active)

O=C(Cn1sc2ccccc2c1=O)Nc1ccccc1Br
IC50 (Hexokinase): 4.66 µM (active)

CN(C)CCCn1c(-c2ccccc2)nc(=S)c2c1CCCC2
IC50 [13]: > 100 µM (inactive)
IC50 [14]: > 100 µM (not active)
EC50 [15]: 0.697 µM (active)
EC50 [16]: > 60 µM (not active)

O=C(NCc1cccnc1)c1ccc(NC(=O)c2ccc([N+](=O)[O-])cc2)cc1
EC50 (BJ [1]): > 150 µM (not active)
EC50 (BJ [2]): 15.9 µM (inconclusive)
EC50 (BJ [3]): > 66.7 µM (inactive)
EC50 [5]: > 150 µM (not active)
AC50 (INS1): < 0.195 µM (active)
EC50 (BJ [8]): > 150 µM (not active)

Cc1c2ccnc(C(F)(F)F)c2cc2c1[nH]c1ccccc12
GI50 (SN12K1): 58.5 µM (inactive)
GI50 (P388): > 125 µM (inactive)
GI50 (P388/ADR): 78.9 µM (inactive)

Cc1cc(Cl)ccc1OCC(=O)Nc1ccccc1CO
IC50 [13]: > 100 µM (inactive)
IC50 [14]: > 100 µM (not active)

CN1CCN(c2ccc(NC(=S)NC(=O)c3cccc4ccccc34)cc2)CC1
AC50 [9]: 9 µM (active)

CC(O)C(O)C(N)CC=O (centres undefined)
GI50 (SN12K1): > 500 µM (inactive)
GI50 (P388): > 500 µM (inactive)
GI50 (P388/ADR): > 500 µM (inactive)

Reference: ChEMBL document CHEMBL1201862, “PubChem BioAssay data set” (2004)
